Experimental data published in article PMC7534258, “Novel temporin L antimicrobial peptides: promoting self-assembling by lipidic tags to tackle superbugs” (Journal of Enzyme Inhibition and Medicinal Chemistry, 2020).
Like-named read-outs stand apart in the source and are kept apart here. Where a SMILES comes first, the peptide text is derived from it. [ ]: non-standard residue; d: D form. The star is where a group is joined. Phe(4-NH2) = Nc1ccc(C[C@H](N)C(=O)O)cc1; Pentanoyl = CCCCC(=O)*

What was measured:
[1] = system: K. pneumoniae ATCC BAA-1705; assay: Broth microdilution MIC, reference strain; assay type: cell-based, Klebsiella pneumoniae
Procedure: (§1) Staphylococcus aureus ATCC 25923, Pseudomonas aeruginosa ATCC 27853 and Klebsiella pneumoniae ATCC BAA-1705 (carbapenemase producer) were obtained from the American Type Culture Collection (Rockville, MD).
(§2) Identification was performed by sub-culturing on Tryptic Soy Agar (TSA, Becton Dickinson) and by biochemical characterisation using the Vitek II system (Biomerieux). The antimicrobial susceptibility testing of all isolates was determined using Vitek II system and results were interpreted according to European Committee on Antimicrobial Susceptibility Testing (EUCAST version 9.0, 2019). P. aeruginosa was cultured in Brain Heart Infusion broth (BHI, OXOID), S. aureus and K. pneumoniae were cultured in Tryptic Soya broth (TSB, OXOID), under aerobic conditions at 37 °C, for 24 h on an orbital shaker at 200 rpm.
(§3) Minimal inhibitory concentrations (MIC) of all the peptides were determined in Mueller–Hinton medium by the broth microdilution assay, following the procedure already described[22]^,[34]. The compounds were added to bacterial suspension in each well yielding a final cell concentration of 1 × 10^6 CFU/ml and a final compound concentration ranging from 0.78 to 100 µM. Negative control wells were set to contain bacteria in Mueller–Hinton broth plus the amount of vehicle (ethanol) used to dilute each compound. Positive controls included vancomycin (2 µg/ml), tobramycin (4 µg/ml), gentamycin (4 µg/ml), and imipenem (8 µg/ml).

[2] = system: S. aureus ATCC 25923; assay: microbe, parasite or virus in culture; settings: ATCC 25923
Procedure: as §1, §2, §3

[3] = 90% human serum, 37 ± 1 °C, 200 µM
Procedure: Human serum from human male AB plasma was acquired by Sigma-Aldrich-Merk. Water and MeCN were obtained from commercial suppliers and used without further purification. Analytical RP-UHPLC was performed on a Shimadzu Nexera equipped with a Phenomenex Kinetex column (C18, 4.6 mm x 150 mm, […]) and H2O (0.1% TFA) and MeCN (0.1% TFA) as eluents.
Serum stability was evaluated by modification of elsewhere described methods[37]^,[38]. In particular, the human serum was allocated into a 1.5 ml eppendorf tube and temperature equilibrated at 37 ± 1 °C for 15 min. Peptides 1B, and C were dissolved in sterile water to prepare a stock solution of 2 mM and then mixed with the human serum to make a final concentration of 0.2 mM (90% serum). The resulting reaction solution was incubated at 37 ± 1 °C. Aliquots of the reaction solutions were taken at known time intervals (0, 15, 45, 75, 90, 120 min), subjected to serum proteins precipitation by addition of MeCN (double volume respect to the aliquot). The cloudy reaction sample was cooled (4 °C) for 15 min and then spun at 13000 rpm for 10 min to pellet the precipitated serum proteins. The supernatant was then analysed by RP-UHPLC by using a linear elution gradient from 10 to 90% MeCN (0.1% TFA) in water (0.1% TFA) over 20 min. A flow rate of 1 ml/min was used, absorbance was detected at 220 nm, and the analysis was performed at room temperature.

[4] = system: HaCaT cells; settings: 24 h, at 25.0 µM
Procedure: The human immortalised keratinocytes HaCaT cells (AddexBio, San Diego, CA, USA) were cultured in Dulbecco’s modified Eagle’s medium containing 4 mM glutamine (DMEMg), supplemented with 10% heat-inactivated foetal bovine serum (FBS) and 0.1 mg/ml of penicillin and streptomycin, at 37 °C and 5% CO2, in 25 cm^2 or 75 cm^2 flasks[33].
The colorimetric MTT assay was carried out to measure cellular metabolic activity in terms of cell viability[33]^,[36]. Viable cells are able to reduce, by active mitochondrial dehydrogenases, the yellow salt MTT to purple formazan crystals. Briefly, 4 × 10^4 HaCaT cells, suspended in DMEMg supplemented with 2% FBS, were plated in each well of a 96-well microtiter plate. After overnight incubation, at 37 °C in a 5% CO2 atmosphere, keratinocytes were treated for 24 h with fresh serum-free medium containing the peptides 3B and C at concentrations ranging from 3.12 µM to 25 µM. Afterward, the culture medium was replaced with Hank’s buffer supplemented with 0.5 mg/ml MTT and the plate was incubated at 37 °C and 5% CO2 for 4 h. At the end, acidified isopropanol was employed to dissolve the formazan crystals. Cell viability was calculated, with respect to cells not treated with peptide, by absorbance measurements at 570 nm using a microplate reader (Infinite M200; Tecan, Salzburg, Austria)[33]. […]

[5] = system: HaCaT cells; settings: at 25.0 µM, ref Merlino et al. [22]; cited from earlier work

With `CCCCC(=O)Nc1ccc(C[C@H](N)C(=O)N[C@H](C(=O)N2CCC[C@H]2C(=O)N[C@@H](Cc2c[nH]c3ccccc23)C(=O)N[C@@H](Cc2ccccc2)C(=O)N[C@@H](CO)C(=O)N[C@@H](CCCCN)C(=O)N[C@@H](Cc2ccccc2)C(=O)N[C@H](CC(C)C)C(=O)N[C@H](CCCCN)C(=O)N[C@@H](CCCNC(=N)N)C(=O)N[C@H](C(=O)N[C@@H](CC(C)C)C(N)=O)[C@@H](C)CC)C(C)C)cc1` [C, H-Phe(4-NHCO(CH2)3CH3)-Val-Pro-Trp-Phe-Ser-Lys-Phe-DLeu-DLys-Arg-Ile- Leu-NH2] (H-[Phe(4-NH2)](Pentanoyl)VPWFSKF[dL][dK]RIL-NH2) the “Antimicrobial activity (MIC) K. pneumoniae ATCC BAA-1705” value ([1]; ATCC BAA-1705) was 6.25 µM, the “Antimicrobial activity (MIC) S. aureus ATCC 25923” value [2] was 6.25 µM and the “start of partial degradation in human serum” value [3] was 80 min. The “time peptide is stable in human serum” value [3] was “up to 1 h” and the cytotoxicity [4] was 13.29%.
In the case of `CC[C@H](C)[C@H](NC(=O)[C@H](CCCNC(=N)N)NC(=O)[C@@H](CCCCN)NC(=O)[C@@H](CC(C)C)NC(=O)[C@H](Cc1ccccc1)NC(=O)[C@H](CCCCN)NC(=O)[C@H](CO)NC(=O)[C@H](Cc1ccccc1)NC(=O)[C@H](Cc1c[nH]c2ccccc12)NC(=O)[C@@H]1CCCN1C(=O)[C@@H](NC(=O)[C@@H](N)Cc1ccccc1)C(C)C)C(=O)N[C@@H](CC(C)C)C(N)=O` [Compound 1B, H-Phe-Val-Pro-Trp-Phe-Ser-Lys-Phe-DLeu-DLys-Arg-Ile-Leu-NH2] (H-FVPWFSKF[dL][dK]RIL-NH2), the “Antimicrobial activity (MIC) K. pneumoniae ATCC BAA-1705” value ([1]; 100% growth inhibition after 16–18 h at 37 °C) is reported as 12.5 µM, the “Antimicrobial activity (MIC) S. aureus ATCC 25923” value [2] is reported as 6.25 µM and the “proteolytic stability in human serum (in words)” value ([3]; within 120 min) is reported as “rapidly degraded”. For the same compound, the cytotoxicity [5] was 28.22%.
